# Source: PubChem BioAssay (NCI)
#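 In this assay, cells in 96-well plates receive the compound at five concentrations for 48 hours. Endpoints are linearly interpolated between the surrounding concentrations. TGI marks complete inhibition of growth.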
# Tests used:
# Test in all cases: NCI anticancer screen, dose series, 48 h
# 786-0 renal = test system: 786-0 renal
# A498 renal = test system: A498 renal
# A549 NSCLC = test system: A549 NSCLC
# ACHN renal = test system: ACHN renal
# BT-549 breast = test system: BT-549 breast
# CAKI-1 renal = test system: CAKI-1 renal
# CCRF-CEM leukemia = test system: CCRF-CEM leukemia
# COLO 205 colon = test system: COLO 205 colon
# DU-145 prostate = test system: DU-145 prostate
# EKVX NSCLC = test system: EKVX NSCLC
# HCC-2998 colon = test system: HCC-2998 colon
# HCT-116 colon = test system: HCT-116 colon
# HCT-15 colon = test system: HCT-15 colon
# HOP-62 NSCLC = test system: HOP-62 NSCLC
# HS 578T breast = test system: HS 578T breast
# HT29 colon = test system: HT29 colon
# K-562 leukemia = test system: K-562 leukemia
# KM12 colon = test system: KM12 colon
# LOX IMVI melanoma = test system: LOX IMVI melanoma
# M14 melanoma = test system: M14 melanoma
# MALME-3M melanoma = test system: MALME-3M melanoma
# MCF7 breast = test system: MCF7 breast
# MDA-MB-231 breast = test system: MDA-MB-231 breast
# MDA-MB-435 = test system: MDA-MB-435
# MDA-N = test system: MDA-N
# MOLT-4 leukemia = test system: MOLT-4 leukemia
# NCI-H226 lung = test system: NCI-H226 lung
# NCI-H23 lung = test system: NCI-H23 lung
# NCI-H460 lung = test system: NCI-H460 lung
# NCI-H522 lung = test system: NCI-H522 lung
# NCI/ADR-RES ovarian = test system: NCI/ADR-RES ovarian
# OVCAR-3 ovarian = test system: OVCAR-3 ovarian
# OVCAR-4 ovarian = test system: OVCAR-4 ovarian
# OVCAR-5 ovarian = test system: OVCAR-5 ovarian
# OVCAR-8 ovarian = test system: OVCAR-8 ovarian
# PC-3 prostate = test system: PC-3 prostate
# RPMI-8226 leukemia = test system: RPMI-8226 leukemia
# RXF 393 renal = test system: RXF 393 renal
# SF-268 CNS = test system: SF-268 CNS
# SF-295 CNS = test system: SF-295 CNS
# SF-539 CNS = test system: SF-539 CNS
# SK-MEL-28 melanoma = test system: SK-MEL-28 melanoma
# SK-MEL-5 melanoma = test system: SK-MEL-5 melanoma
# SK-OV-3 ovarian = test system: SK-OV-3 ovarian
# SN12C renal = test system: SN12C renal
# SNB-19 CNS = test system: SNB-19 CNS
# SNB-75 CNS = test system: SNB-75 CNS
# SR leukemia = test system: SR leukemia
# SW-620 colon = test system: SW-620 colon
# T-47D breast = test system: T-47D breast
# TK-10 renal = test system: TK-10 renal
# U251 CNS = test system: U251 CNS
# UACC-257 melanoma = test system: UACC-257 melanoma
# UACC-62 melanoma = test system: UACC-62 melanoma
# UO-31 renal = test system: UO-31 renal
# HL-60(TB) leukemia = test system: HL-60(TB) leukemia
# HOP-92 NSCLC = test system: HOP-92 NSCLC
# IGROV1 ovarian = test system: IGROV1 ovarian
# SK-MEL-2 melanoma = test system: SK-MEL-2 melanoma
smiles,measurement,setting,value
CCC(C)C(NC(=O)C(CCCC[N+](=N)N)NC(=O)C(CCCC[N+](=N)N)NC(=O)c1ccc(OC)cc1)C(=O)NC(CCCC[N+](=N)N)C(=O)N1CCCC1C(=O)NC(CCCCN)C(=O)NC(CC(C)C)C(N)=O (stereo unspecified),TGI,786-0 renal,> 100 µM
same,TGI,A498 renal,> 100 µM
same,TGI,A549 NSCLC,> 100 µM
same,TGI,ACHN renal,> 100 µM
same,TGI,BT-549 breast,> 100 µM
same,TGI,CAKI-1 renal,> 100 µM
same,TGI,CCRF-CEM leukemia,> 100 µM
same,TGI,COLO 205 colon,> 100 µM
same,TGI,DU-145 prostate,> 100 µM
same,TGI,EKVX NSCLC,> 100 µM
same,TGI,HCC-2998 colon,> 100 µM
same,TGI,HCT-116 colon,> 100 µM
same,TGI,HCT-15 colon,> 100 µM
same,TGI,HOP-62 NSCLC,> 100 µM
same,TGI,HS 578T breast,> 100 µM
same,TGI,HT29 colon,> 100 µM
same,TGI,K-562 leukemia,> 100 µM
same,TGI,KM12 colon,> 100 µM
same,TGI,LOX IMVI melanoma,> 100 µM
same,TGI,M14 melanoma,> 100 µM
same,TGI,MALME-3M melanoma,> 100 µM
same,TGI,MCF7 breast,> 100 µM
same,TGI,MDA-MB-231 breast,> 100 µM
same,TGI,MDA-MB-435,> 100 µM
same,TGI,MDA-N,> 100 µM
same,TGI,MOLT-4 leukemia,> 100 µM
same,TGI,NCI-H226 lung,> 100 µM
same,TGI,NCI-H23 lung,> 100 µM
same,TGI,NCI-H460 lung,> 100 µM
same,TGI,NCI-H522 lung,> 100 µM
same,TGI,NCI/ADR-RES ovarian,> 100 µM
same,TGI,OVCAR-3 ovarian,> 100 µM
same,TGI,OVCAR-4 ovarian,> 100 µM
same,TGI,OVCAR-5 ovarian,> 100 µM
same,TGI,OVCAR-8 ovarian,> 100 µM
same,TGI,PC-3 prostate,> 100 µM
same,TGI,RPMI-8226 leukemia,> 100 µM
same,TGI,RXF 393 renal,> 100 µM
same,TGI,SF-268 CNS,> 100 µM
same,TGI,SF-295 CNS,> 100 µM
same,TGI,SF-539 CNS,> 100 µM
same,TGI,SK-MEL-28 melanoma,> 100 µM
same,TGI,SK-MEL-5 melanoma,> 100 µM
same,TGI,SK-OV-3 ovarian,> 100 µM
same,TGI,SN12C renal,> 100 µM
same,TGI,SNB-19 CNS,> 100 µM
same,TGI,SNB-75 CNS,> 100 µM
same,TGI,SR leukemia,> 100 µM
same,TGI,SW-620 colon,> 100 µM
same,TGI,T-47D breast,> 100 µM
same,TGI,TK-10 renal,> 100 µM
same,TGI,U251 CNS,> 100 µM
same,TGI,UACC-257 melanoma,> 100 µM
same,TGI,UACC-62 melanoma,> 100 µM
same,TGI,UO-31 renal,> 100 µM
CC1CCc2sc3[nH]c(=S)n(C)c(=O)c3c2C1 (stereo unspecified),TGI,786-0 renal,> 100 µM
same,TGI,A549 NSCLC,> 100 µM
same,TGI,ACHN renal,> 100 µM
same,TGI,BT-549 breast,> 100 µM
same,TGI,CAKI-1 renal,> 100 µM
same,TGI,COLO 205 colon,> 100 µM
same,TGI,DU-145 prostate,> 100 µM
same,TGI,EKVX NSCLC,94.6 µM
same,TGI,HCC-2998 colon,82.5 µM
same,TGI,HCT-116 colon,> 100 µM
same,TGI,HCT-15 colon,> 100 µM
same,TGI,HL-60(TB) leukemia,26.2 µM
same,TGI,HOP-62 NSCLC,> 100 µM
same,TGI,HOP-92 NSCLC,44.5 µM
same,TGI,HS 578T breast,> 100 µM
same,TGI,HT29 colon,> 100 µM
same,TGI,IGROV1 ovarian,> 100 µM
same,TGI,K-562 leukemia,> 100 µM
same,TGI,KM12 colon,> 100 µM
same,TGI,LOX IMVI melanoma,> 100 µM
same,TGI,M14 melanoma,99.6 µM
same,TGI,MALME-3M melanoma,> 100 µM
same,TGI,MCF7 breast,> 100 µM
same,TGI,MDA-MB-231 breast,> 100 µM
same,TGI,MDA-MB-435,> 100 µM
same,TGI,MDA-N,> 100 µM
same,TGI,MOLT-4 leukemia,> 100 µM
same,TGI,NCI-H226 lung,87.9 µM
same,TGI,NCI-H23 lung,> 100 µM
same,TGI,NCI-H460 lung,> 100 µM
same,TGI,NCI-H522 lung,84.5 µM
same,TGI,NCI/ADR-RES ovarian,> 100 µM
same,TGI,OVCAR-3 ovarian,62.4 µM
same,TGI,OVCAR-4 ovarian,> 100 µM
same,TGI,OVCAR-5 ovarian,> 100 µM
same,TGI,OVCAR-8 ovarian,> 100 µM
same,TGI,PC-3 prostate,72 µM
same,TGI,RPMI-8226 leukemia,> 100 µM
same,TGI,RXF 393 renal,> 100 µM
same,TGI,SF-268 CNS,> 100 µM
same,TGI,SF-295 CNS,> 100 µM
same,TGI,SK-MEL-2 melanoma,> 100 µM
same,TGI,SK-MEL-28 melanoma,> 100 µM
same,TGI,SK-MEL-5 melanoma,> 100 µM
same,TGI,SK-OV-3 ovarian,> 100 µM
same,TGI,SN12C renal,> 100 µM
same,TGI,SNB-19 CNS,> 100 µM
same,TGI,SNB-75 CNS,> 100 µM
same,TGI,SR leukemia,> 100 µM
same,TGI,SW-620 colon,> 100 µM
same,TGI,T-47D breast,> 100 µM
same,TGI,TK-10 renal,> 100 µM
same,TGI,U251 CNS,> 100 µM
same,TGI,UACC-257 melanoma,> 100 µM
same,TGI,UACC-62 melanoma,> 100 µM
same,TGI,UO-31 renal,33.6 µM
